These results are taken from patent publication US11400081B2, “Compounds” (The University of Sheffield, priority 2017, dated 2022).

The target of assay [1] is T1, AM2 receptor (CALCRL+RAMP3) (Homo sapiens, UniProt O60896+Q16602).
T1 construct: host or cells: 1321N1
Put plainly: AM2 receptor inhibition, LANCE TR-FRET cAMP agonist-antagonist competition assay. The assay is classed as cell-based. The conditions noted are these: inhibition of AM induced cAMP activation; 1321N1 cells transfected with CALCRL+RAMP3; read-out: AM2 pIC50 (converted).

Assay [2] concerns human pancreatic cancer cells. To be noted: local injection directly into tumours, pancreatic cancer model; cited from earlier work.

No end group written: not given here.

T1 sequence (Q16602 23-461): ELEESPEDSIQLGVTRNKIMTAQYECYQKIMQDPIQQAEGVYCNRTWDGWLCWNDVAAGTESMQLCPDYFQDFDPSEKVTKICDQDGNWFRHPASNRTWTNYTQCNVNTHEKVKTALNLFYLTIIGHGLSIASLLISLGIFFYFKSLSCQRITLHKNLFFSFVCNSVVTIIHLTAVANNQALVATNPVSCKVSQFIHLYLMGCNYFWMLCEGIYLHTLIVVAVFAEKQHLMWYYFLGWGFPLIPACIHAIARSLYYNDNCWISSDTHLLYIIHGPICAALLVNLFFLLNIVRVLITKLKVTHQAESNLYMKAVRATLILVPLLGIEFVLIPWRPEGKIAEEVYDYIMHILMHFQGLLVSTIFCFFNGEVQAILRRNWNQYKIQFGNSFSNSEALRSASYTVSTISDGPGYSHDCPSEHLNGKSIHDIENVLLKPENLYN
T1 sequence (O60896 24-148): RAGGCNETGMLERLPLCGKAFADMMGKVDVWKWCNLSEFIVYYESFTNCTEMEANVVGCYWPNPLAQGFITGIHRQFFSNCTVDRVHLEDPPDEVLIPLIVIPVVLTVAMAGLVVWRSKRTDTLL

For the compound `CNCc1ccccc1CN(CC(=O)Nc1cc2c(cn1)CC1(C2)C(=O)Nc2ncccc21)C(=O)C(C)(C)C` (stereo not shown) [Example 103, N-(2-((Methylamino)methyl)benzyl)-N-(2-oxo-2-((2′-oxo-1′,2′,5,7-tetrahydrospiro[cyclopenta[c]pyridine-6,3′-pyrrolo[2,3-b]pyridin]-3-yl)amino)ethyl)pivalamide], the IC50 in assay [1] was 24 nM. As to `CNCc1ccccc1CN(CC(=O)Nc1ccc2c(n1)CC1(C2)C(=O)Nc2ncccc21)C(=O)C(C)(C)C` (stereo not shown) [Example 104, N-(2-((methylamino)methyl)benzyl)-N-(2-oxo-2-((2′-oxo-1′,2′,5,7-tetrahydrospiro[cyclopenta[b]pyridine-6,3′-pyrrolo[2,3-b]pyridin]-2-yl)amino)ethyl)pivalamide], the IC50 in assay [1] was 151 nM. As to `CNCc1ccccc1CN(CC(=O)Nc1cnc2c(c1)CC1(C2)C(=O)Nc2ncccc21)C(=O)C(C)(C)C` (stereo not shown) [Example 105, N-(2-((methylamino)methyl)benzyl)-N-(2-oxo-2-((2′-oxo-1′,2′,5,7-tetrahydrospiro[cyclopenta[b]pyridine-6,3′-pyrrolo[2,3-b]pyridin]-3-yl)amino)ethyl)pivalamide 2,2,2-trifluoroacetate], in assay [1], the IC50 was 50.1 nM. On to “AM22-52: "the AM peptide antagonist (AM22-52)"; "peptide and antibody AM2 receptor inhibitors are known such as AM22-52" (TVQKLAHQIYQFTDKDKDNVAPRSKISPQGY; ends and bridges not checked; UniProt P35318 116-146, looked up, fragment)”, for which, in assay [2], the “tumour size compared to controls” value was “reduced tumour size significantly”.
